Experimental data: article PMC7155171, “Probing the Open Global Health Chemical Diversity Library for Multistage-Active Starting Points for Next-Generation Antimalarials” (ACS Infectious Diseases, 2020)
Where two headings read alike, the source gives them in different places.

How the values were obtained:
[1] = system: P. falciparum Dd2 (PfLuc) line expressing firefly luciferase, asexual blood stage; assay: microbe, parasite or virus in culture; format: cell-based, Plasmodium falciparum; details: for IC50 / Emax: Plasmodium falciparum
P. falciparum Dd2 = assay: SYBR green I asexual blood stage proliferation assay (96 h); format: cell-based, Plasmodium falciparum; details: Plasmodium falciparum, DD2, 11-pt dose response, 96hr
[2] = DD2, read-out: CDD P. falciparum Luciferase ABS 11-pt Reconfirmation Dose Response (48hr): IC50 (μM), 11-pt dose response, 48hr
[3] = DD2, 8-pt dose response, 96hr, read-out: CDD P. falciparum Luciferase ABS 8-pt Reconfirmation Dose Response (96hr): IC50
[4] = DD2, 8-pt dose response, 96hr, read-out: CDD P. falciparum Luciferase ABS 8-pt Reconfirmation Dose Response (96hr): Maximum inhibition (%)
[5] = DD2, 11-pt dose response, 48hr, read-out: CDD P. falciparum Luciferase ABS 11-pt Reconfirmation Dose Response (48hr): Maximum inhibition (%)
[6] = DD2, 11-pt dose response, 96hr, read-out: CDD P. falciparum Luciferase ABS 11-pt Reconfirmation Dose Response (96hr): IC50
[7] = DD2, 11-pt dose response, 96hr, read-out: CDD P. falciparum Luciferase ABS 11-pt Reconfirmation Dose Response (96hr): Maximum inhibition (%)
[8] = Sybr Green I, read-out: CDD P. falciparum Sybr Green I ABS 11-pt Reconfirmation Dose Response (96hr): IC50
[9] = Sybr Green I, read-out: CDD P. falciparum Sybr Green I ABS 11-pt Reconfirmation Dose Response (96hr): Maximum inhibition (%)
[10] = DD2, read-out: P. falciparum Luciferase ABS 11-pt Reconfirmation Dose Response (48hr): IC50, 11-pt dose response, 48hr
[11] = DD2, 8-pt dose response, 96hr, read-out: P. falciparum Luciferase ABS 8-pt Reconfirmation Dose Response (96hr): IC50
[12] = DD2, 8-pt dose response, 96hr, read-out: P. falciparum Luciferase ABS 8-pt Reconfirmation Dose Response (96hr): Maximum inhibition (%)
[13] = DD2, 11-pt dose response, 48hr, read-out: P. falciparum Luciferase ABS 11-pt Reconfirmation Dose Response (48hr): Maximum inhibition (%)
[14] = DD2, 11-pt dose response, 96hr, read-out: P. falciparum Luciferase ABS 11-pt Reconfirmation Dose Response (96hr): IC50
[15] = DD2, 11-pt dose response, 96hr, read-out: P. falciparum Luciferase ABS 11-pt Reconfirmation Dose Response (96hr): Maximum inhibition (%)
[16] = read-out: P. falciparum Sybr Green I ABS 11-pt Reconfirmation Dose Response (96hr): IC50
[17] = read-out: P. falciparum Sybr Green I ABS 11-pt Reconfirmation Dose Response (96hr): Maximum inhibition (%)

SMILES | IC50 [1, 2] [µM] | IC50 [1, 3] [µM] | Emax [1, 4] [%] | Emax [1, 5] [%] | IC50 [1, 6] [µM] | Emax [1, 7] [%] | IC50 (P. falciparum Dd2; [8]) [µM] | Emax (P. falciparum Dd2; [9]) [%] | IC50 [1, 10] [µM] | IC50 [1, 11] [µM] | Emax [1, 12] [%] | Emax [1, 13] [%] | IC50 [1, 14] [µM] | Emax [1, 15] [%] | IC50 (P. falciparum Dd2; [16]) [µM] | Emax (P. falciparum Dd2; [17]) [%] | activity in ABS screens [1]
Cc1cc(CN2CCC(CNS(=O)(=O)c3ccc(Br)s3)CC2)c(C)o1 [DDD01027665] | 3.89 | 0.63 | 89.4 | 82 | 1.08 | 95 | > 12.5 | 32.7 | – | – | – | – | – | – | – | – | –
COc1ccc(CCC(=O)NCCN2CCC(c3cccs3)CC2)cc1 [DDD01028015] | 11.4 | 0.95 | 85.7 | 69.6 | 2.24 | 86.6 | 4.17 | 71.9 | – | – | – | – | – | – | – | – | –
O=C(NCCc1ccccc1)NCCN1CCC(c2cccs2)CC1 [DDD01028018] | – | – | – | – | – | – | – | – | 5.18 | 1.18 | 87.7 | 64 | 1.42 | 87.1 | > 4.16 | 69.6 | –
COc1ccc(NC(=O)Nc2cnc(N3CCN(C)CC3)nc2)cc1Cl [DDD01028129] | – | – | – | – | – | – | – | – | > 12.5 | 1.39 | 94.1 | 14.8 | 4.41 | 57.8 | > 12.5 | 38.2 | –
c1ccc(C[C@H]2CN(C3CCOCC3)CC[C@H]2OCC2CC2)cc1 [DDD01028772] | > 12.5 | 0.69 | 87 | 70.2 | 1.04 | 91.3 | 7.17 | 69.9 | – | – | – | – | – | – | – | – | –
CN1CCC2(CCCN(c3nccc(C(F)(F)F)n3)C2)CC1 [DDD01028783] | > 12.5 | 0.75 | 87.2 | 60.6 | 3.57 | 84.9 | 8.82 | 74 | – | – | – | – | – | – | – | – | –
CC(C)N1CCC2(CCCN(c3nccc(C(F)(F)F)n3)C2)CC1 [DDD01028790] | 3.12 | 0.61 | 89.3 | 69 | 1.33 | 91.1 | 9.75 | 76.4 | – | – | – | – | – | – | – | – | –
Fc1cccc(CN2C[C@@H]3CN(Cc4ccccn4)C[C@@H]3C2)c1 [DDD01029091] | 1.16 | 0.62 | 95.3 | 94 | 0.354 | 100 | 2.34 | – | – | – | – | – | – | – | – | – | –
NCC1[C@H]2CN(Cc3cccc(Cl)c3)C[C@@H]12 (stereo partly shown) [DDD01029240] | 2.68 | 0.55 | 93.8 | 85 | 1.2 | 99 | 1.89 | 90.7 | – | – | – | – | – | – | – | – | –
c1ccc(CN2CCCC3(CCN(Cc4cccs4)C3)C2)nc1 (stereo not shown) [DDD01029520] | – | – | – | – | – | – | – | – | 6.38 | 1.97 | 83.5 | 51.8 | 2.96 | 86.9 | > 4.16 | 58 | –
c1ccc(N2CCCC3(CCN(Cc4ccsc4)C3)C2)nc1 (stereo not shown) [DDD01029521] | 3.75 | 1.02 | 83.9 | 64.3 | 2.51 | 86.9 | 1.88 | 66.8 | – | – | – | – | – | – | – | – | –
Fc1ccc(CN2CCC3(CC2)CCN(Cc2nccs2)CC3)cc1 [DDD01031337] | 8.85 | 0.78 | 88.8 | 69.4 | 1.46 | 87.9 | > 1.39 | 71.7 | – | – | – | – | – | – | – | – | –
Cc1ccc(CN2CCC3(CC2)CCN(Cc2ccoc2)CC3)cc1 [DDD01031590] | 2.04 | 0.24 | 94.3 | 86.7 | 0.444 | 99.4 | 2.33 | – | – | – | – | – | – | – | – | – | –
Cc1ccc(CN2CCC3(CC2)CCN(Cc2ccco2)CC3)cc1 [DDD01031591] | 7.27 | 0.77 | – | 74.1 | 0.938 | 94.4 | 6.72 | 84.1 | – | – | – | – | – | – | – | – | –
CN1[C@H](Cn2cccn2)C[C@@H]2CN(Cc3cccs3)CC[C@@H]21 [DDD01032287] | > 12.5 | 0.77 | 80.2 | 45.9 | > 1.39 | 85.9 | > 4.16 | 67.6 | – | – | – | – | – | – | – | – | –
c1cncc(N2CCCC3(CCN(CCN4CCCC4)CC3)C2)c1 [DDD01032557] | – | – | – | – | – | – | – | – | 7.21 | 1.19 | – | 83.2 | 1.41 | 99.7 | 2.44 | 93.7 | –
CN(C)[C@@H]1CCN(c2ncc(F)cn2)[C@H]1Cc1ccccc1 [DDD01033375] | 5.55 | 1.11 | 86.7 | 53.2 | 2.25 | 86.9 | > 4.16 | 74.6 | – | – | – | – | – | – | – | – | –
CCN1CCC2(CC1)CC(NCc1cccs1)c1ccccc1O2 (stereo not shown) [DDD01034117] | 2.44 | 0.39 | 91.4 | 72.4 | 0.515 | 91.9 | 3.4 | 78.6 | – | – | – | – | – | – | – | – | –
CCN1CCC2(CC1)CC(NCc1cccc(C)n1)c1ccccc1O2 (stereo not shown) [DDD01034133] | 11.7 | 0.72 | – | 67.5 | 3.23 | 88.1 | 10.3 | 79.5 | – | – | – | – | – | – | – | – | –
CCN1CCC2(CC1)CC(NCc1ccncc1)c1ccccc1O2 (stereo not shown) [DDD01034171] | > 12.5 | 0.75 | 87.7 | 61.8 | 3.05 | 86 | > 4.16 | 74 | – | – | – | – | – | – | – | – | –
COc1ccc(N2CCCC3(C2)CN(c2nncs2)CCO3)cc1 (stereo not shown) [DDD01034473] | 0.758 | 0.2 | 95 | – | 0.451 | 97.9 | 0.83 | 95.3 | – | – | – | – | – | – | – | – | –
CCOc1ccc(Br)cc1C1CCCCN1 (stereo not shown) [DDD01034784] | > 12.5 | 0.81 | 86.8 | 60 | > 1.39 | 90.9 | 2.78 | 65.2 | – | – | – | – | – | – | – | – | –
CCOc1ccc(Br)cc1C1CCCN1 (stereo not shown) [DDD01034787] | 4.88 | 0.85 | 85.8 | 59.1 | 1.38 | 86.3 | 7.59 | 78.7 | – | – | – | – | – | – | – | – | –
Cc1c(C)n(CC(O)CN2CCN(CCO)CC2)c2c(Cl)cccc12 (stereo not shown) [DDD01034970] | – | – | – | – | – | – | – | – | 3.79 | 1.15 | 85.4 | 86.8 | 2.24 | 95.9 | > 4.16 | 73.1 | –
CC(N)Cc1ccccc1Sc1ccccc1 (stereo not shown) [DDD01035540] | – | – | – | – | – | – | – | – | 3.57 | 1.63 | 92 | 89.6 | 0.558 | 98.2 | 4.17 | 86.1 | –
c1ccc(Sc2ccc3c(c2)OCO3)c(CNC2=NCCN2)c1 [DDD01035544] | 7.86 | 1.05 | 85.5 | 75 | 1.67 | 95.1 | > 4.16 | 65.9 | – | – | – | – | – | – | – | – | –
CN(C)[C@@H]1CCN(c2ncccn2)[C@H]1Cc1ccccc1 [DDD01036700] | > 12.5 | 0.85 | 85.6 | 47.6 | 2.4 | 80.9 | > 4.16 | 74.7 | – | – | – | – | – | – | – | – | –
CC(O)c1cccc(Nc2nc(NCCO)c3ccccc3n2)c1 (stereo not shown) [DDD01037968] | 2.9 | 0.29 | 92.4 | 96.3 | 0.739 | 99.6 | 3.13 | 95.8 | – | – | – | – | – | – | – | – | active in ABS screens
CCN(CC)CCNS(=O)(=O)c1cccc(CSC)c1 [DDD01038216] | 10.2 | 0.58 | 87.3 | 58.8 | 2.99 | 89.5 | 7.55 | 73.7 | – | – | – | – | – | – | – | – | –
Oc1ccc(Cl)cc1CNCc1ccccc1Cl [DDD01038243] | > 12.5 | 1.02 | 90.3 | 59.4 | 4.2 | 88.4 | > 12.5 | 34.6 | – | – | – | – | – | – | – | – | –
